Experiments:
[1] = biological target: T1, GST-LMP1_181-386 / His-TRAF6_310-522 (Homo sapiens, UniProt Q9Y4K3); test: AlphaScreen PPI inhibition, LMP1-TRAF6; assay type: binding
T1 construct: recombinant GST-LMP1_181-386 and His-TRAF6_310-522; made in house; host or cells: E. coli (BL21 Codon Plus RIPL for the His-TRAF protein; DH5α or BL21 Codon Plus RIPL for the GST protein)
Description: (§1) AlphaScreen experiments were performed in 96- or 384-well plates (Perkin Elmer, OptiPlate). In both assay formats, His-TRAF and GST-LMP1, GST-CD40, or GST-RANK proteins were incubated together in 40 µL of PBS (protein concentrations were calculated to the final reaction volume of 60 µL) supplemented with 0.5% BSA (Sigma, #A7030) and 0.1% Tween-20 (AppliChem, #A4974), for 1 h at room temperature (RT). If not indicated otherwise, standard protein concentrations were 300 nM for His-TRAF proteins and 100 nM for GST-LMP1 proteins. Ni-NTA-acceptor (Perkin Elmer, #6760619 C) and GST-acceptor (Perkin Elmer, # 6765300) beads were added each to a final concentration of 1–4 µg per mL in a final reaction volume of 60 µL and incubated for 1 h at RT in the dark. AlphaScreen PPI signals were measured in a CLARIOstar reader (BMG Labtech GmbH).
(§2) All statistical analyses were performed with Prism v10.1.0 software (GraphPad Software Inc.). Two-way ANOVA was performed on experiments with two factors of variance (Figs. 1e and 3a). […] For KD determination, the data from each experiment were cleaned for the hook effect (signal depletion by oversaturation of the beads) and analyzed using the equation one site-specific binding with hill slope (Figs. 1f–i, and Supplementary Fig. 1f). The IC50 was determined using the log(inhibitor) vs. response – variable slope (four parameters) equation (Fig. 8b and d). […]

[2] = biological target: T2, GST-CD40 / His-TRAF6_310-522 (Homo sapiens, UniProt Q9Y4K3); test: AlphaScreen PPI inhibition, CD40-TRAF6; assay type: binding; conditions: Figure 8 d; best-fit values; 0,03-30 µM peptide
T2 construct: AlphaScreen PPI experiments with GST-CD40 and His-TRAF6_310-522; made in house; host or cells: E. coli (BL21 Codon Plus RIPL for the His-TRAF protein; DH5α or BL21 Codon Plus RIPL for the GST protein)
T2 sequence (Q9Y4K3 310-522): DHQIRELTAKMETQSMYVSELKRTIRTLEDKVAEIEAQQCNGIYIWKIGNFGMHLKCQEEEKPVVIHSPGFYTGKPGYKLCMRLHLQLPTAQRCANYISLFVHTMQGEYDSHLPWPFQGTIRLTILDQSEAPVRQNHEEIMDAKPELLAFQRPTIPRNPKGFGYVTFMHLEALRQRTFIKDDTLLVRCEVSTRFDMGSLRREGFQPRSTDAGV
Description: as §1, §2

TRAF6_346-504 = test: NMR spectroscopy (1H,15N HSQC) of TRAF6 with LMP1 peptide; assay type: binding, human; conditions: 90 μM 15N-TRAF6, five-fold excess peptide, PBS pH 7.4, 10% D2O, 298 K
Description: For NMR, a His-SUMO-TRAF6 fusion construct was expressed in E. coli Rosetta2 DE3 cells from pET-hSu-TRAF6_346-504. The recombinant protein was uniformly labeled with ^15N by growing expression cultures in ^15N-autoinduction medium. TRAF6 protein was purified from cell lysate via IMAC using a Ni-NTA column. After elution, the protein was transferred to 100 mM Tris-HCl pH 8.0, 300 mM NaCl, 20 mM imidazole, and 5 mM β-mercaptoethanol. SUMO-hydrolase dtUD1 was added (ratio 1:50) and incubated overnight at 4 °C. After cleavage, the protein was subjected to a second Ni-NTA affinity chromatography step and then further purified via size-exclusion chromatography using a Superdex 75 10/300 GL column (Äkta system, GE Healthcare). SEC buffer was PBS ([…], 2.7 mM KCl, 10 mM Na2HPO4, 1.8 mM KH2PO4 pH 7.4, 5 mM β-ME) and was subsequently used in the following NMR experiments. NMR spectra were recorded at 298 K using a Bruker Avance 600 spectrometer with a QCI cryogenic probe and topspin v.3.2 software (Bruker BioSpin). Spectra were processed using NMRDraw v.8.7 of NMRPipe software[86] and analyzed with the CCPN Analysis software v.2.4.1[87]. NMR titrations were performed by recording ^1H,^15N HSQC experiments. For titrations of TRAF6, samples of 90 μM ^15N-labeled TRAF6 in PBS pH 7.4, 10% D2O, and 5 mM β-ME were used. […]

T1 sequence (Q9Y4K3 310-522): as above

DRQIKIWFQNRRMKWKK [control peptide]
inhibition of LMP1-TRAF6 interaction (in words) [1]: inactive
inhibition of CD40-TRAF6 interaction (in words) [2]: no inhibition

G378PVQLSYYD [LMP1 peptide G378PVQLSYYD, LMP1 peptide used in NMR titration]
NMR signals of TRAF6 upon peptide addition (in words) (TRAF6_346-504): the signals corresponding to some of the TRAF6 residues were broadened beyond detection
